In assay [1] the target is T1, human BRD4 bromodomain II (Homo sapiens, UniProt O60885).
T1 construct: human BRD4 bromodomain II [based on Genbank NM_058243, residues 349-460]; host or cells: E. coli
In words: Bromodomain binding assay (AlphaScreen), BRD4 BDII. The note with it: AlphaScreen assay, Table C2; read-out: BRD4 BDII IC50. The procedure, abridged:
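Compounds (10-point, 3-fold series) were preincubated 30 min at room temperature with E. coli-expressed N-terminal His6-tagged BRD4 BDII (residues 349-460) or BDI (residues 44-170) in 50 mM HEPES pH 7.5, 100 mM NaCl, 0.05% CHAPS, 0.1% BSA, 1% DMSO. Displacement of biotinylated tetra-acetylated H4 1-21 peptide was read by AlphaScreen; IC50 from curve fitting.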
(In general: In Alpha technology, singlet oxygen from a donor bead excites a nearby acceptor bead.)

Assay [2] concerns human SKM-1 acute myeloid leukemia cells. The experiment in a line: SKM-1 antiproliferation cell-based assay (ATPlite). The note with it: Homo sapiens, SKM-1, 96 h, SKM-1 antiproliferation assay, 4 days, Table C2. The procedure, abridged:
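Log-phase cells in RPMI 1640/15% FBS were seeded at 34722 cells/mL and exposed for 4 days to nine-concentration DMSO serial dilutions in triplicate. Viability was read as ATP luminescence (ATPlite 1step), and IC50 values came from variable-slope non-linear regression.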
(In general: ATP-based viability assays read luminescence as a measure of living cells.)

As usually defined, the IC50 is the concentration that gives 50% inhibition. The GI50 is the concentration at which growth is held to half of that of the control. For `CC(C)N1CCN(c2cccc(-c3cc(F)cc(-c4ccc(-n5ccn(C)c5=O)c(Cl)c4)c3O)c2)CC1` [Example 699, 1-(3-chloro-5′-fluoro-2′-hydroxy-3″-(4-isopropylpiperazin-1-yl)-[1,1′:3′,1″-terphenyl]-4-yl)-3-methyl-1H-imidazol-2(3H)-one], the IC50 in assay [1] is 0.01 to 1 nM. In addition, the GI50 in assay [2] is 0.3 to 30 nM.
Regarding `CN1CCCC12CCN(c1cncc(-c3cc(F)cc(-c4ccc(-n5ccn(C)c5=O)c(Cl)c4)c3O)c1)C2` (stereo not shown) [Example 700, 1-(3-chloro-5′-fluoro-2′-hydroxy-3′-(5-(1-methyl-1,7-diazaspiro[4.4]nonan-7-yl)pyridin-3-yl)-[1,1′-biphenyl]-4-yl)-3-methyl-1H-imidazol-2(3H)-one], the IC50 in assay [1] lay in the range of 0.01 to 1 nM. Moreover, the GI50 in assay [2] lay within 0.3 to 30 nM.
The corresponding values for `Cn1ccn(-c2ccc(-c3cc(F)cc(-c4ccnc(N5CCC(N6CCC(F)CC6)C5)c4)c3O)cc2Cl)c1=O` (stereo not shown) [Example 701, 1-(3-chloro-5′-fluoro-3′-(2-(3-(4-fluoropiperidin-1-yl)pyrrolidin-1-yl)pyridin-4-yl)-2′-hydroxy-[1,1′-biphenyl]-4-yl)-3-methyl-1H-imidazol-2(3H)-one] are 0.01 to 1 nM and 30 to 300 nM.
The corresponding values for `COc1cc(-c2cc(F)cc(-c3ccc(-n4ccn(C)c4=O)c(Cl)c3)c2O)cc(N2CCN(C(C)C)CC2)n1` [Example 702, 1-(3-chloro-5′-fluoro-2′-hydroxy-3′-(2-(4-isopropylpiperazin-1-yl)-6-methoxypyridin-4-yl)-[1,1′-biphenyl]-4-yl)-3-methyl-1H-imidazol-2(3H)-one] are 0.01 to 1 nM and 0.3 to 30 nM.
For `Cc1cc(-c2cc(F)cc(-c3ccc(-n4ccn(C)c4=O)c(Cl)c3)c2O)cc(N2CCN(C(C)C)CC2)n1` [Example 703, 1-(3-chloro-5′-fluoro-2′-hydroxy-3′-(2-(4-isopropylpiperazin-1-yl)-6-methylpyridin-4-yl)-[1,1′-biphenyl]-4-yl)-3-methyl-1H-imidazol-2(3H)-one], in that order: 1 to 10 nM and 0.3 to 30 nM.
In the case of `CCc1cc(-c2cc(F)cc(-c3ccc(-n4ccn(C)c4=O)c(Cl)c3)c2O)cc(N2CCN(C(C)C)CC2)n1` [Example 704, 1-(3-chloro-3′-(2-ethyl-6-(4-isopropylpiperazin-1-yl)pyridin-4-yl)-5′-fluoro-2′-hydroxy-[1,1′-biphenyl]-4-yl)-3-methyl-1H-imidazol-2(3H)-one], the concentration for half-maximal inhibition (IC50) in assay [1] was in the range of 0.01 to 1 nM. This compound yielded a GI50 in assay [2] of 0.3 to 30 nM.
In the case of `Cn1ccn(-c2ccc(-c3cc(F)cc(-c4ccnc(N5CC6(CCNC6)CC5=O)c4)c3O)cc2Cl)c1=O` (stereo not shown) [Example 705, 2-(4-(3′-chloro-5-fluoro-2-hydroxy-4′-(3-methyl-2-oxo-2,3-dihydro-1H-imidazol-1-yl)-[1,1′-biphenyl]-3-yl)pyridin-2-yl)-2,7-diazaspiro[4.4]nonan-3-one], in assay [1], the IC50 is 0.01 to 1 nM. Besides, the GI50 in assay [2] is 30 to 300 nM.
For `Cn1ccn(-c2ccc(-c3cc(F)cc(-c4cc(F)cc(N5CCNCC5)c4)c3O)cc2Cl)c1=O` [Example 706, 1-(3-chloro-3″,5′-difluoro-2′-hydroxy-5″-(piperazin-1-yl)-[1,1′:3,1″-terphenyl]-4-yl)-3-methyl-1H-imidazol-2(3H)-one], in that order: 0.01 to 1 nM and 0.3 to 30 nM.
The corresponding values for `Cn1ccn(-c2ccc(-c3cc(F)cc(-c4ccnc(N5CCS(=O)(=O)CC5)c4)c3O)cc2Cl)c1=O` [Example 707, 1-(3-chloro-3′-(2-(1,1-dioxidothiomorpholino)pyridin-4-yl)-5′-fluoro-2′-hydroxy-[1,1′-biphenyl]-4-yl)-3-methyl-1H-imidazol-2(3H)-one] are 1 to 10 nM and 30 to 300 nM.
The corresponding values for `Cn1ccn(-c2ccc(-c3cc(F)cc(-c4cncc(N5CCC(C)(O)C5)c4)c3O)cc2Cl)c1=O` (stereo not shown) [Example 708, 1-(3-chloro-5′-fluoro-2′-hydroxy-3′-(5-(3-hydroxy-3-methylpyrrolidin-1-yl)pyridin-3-yl)-[1,1′-biphenyl]-4-yl)-3-methyl-1H-imidazol-2(3H)-one] are 0.01 to 1 nM and 0.3 to 30 nM.
Turning to `Cn1ccn(-c2ccc(-c3cc(F)cc(-c4ccnc(N5CC[C@](C)(N)C5)c4)c3O)cc2Cl)c1=O` [Example 711, (S)-1-(3′-(2-(3-amino-3-methylpyrrolidin-1-yl)pyridin-4-yl)-3-chloro-5′-fluoro-2′-hydroxy-[1,1′-biphenyl]-4-yl)-3-methyl-1,3-dihydro-2H-imidazol-2-one], the IC50 in assay [1] lay within 0.01 to 1 nM. In addition, in assay [2], the GI50 lay within 0.3 to 30 nM.
With `CN1CCC2(CC(=O)N(c3cc(-c4cc(F)cc(-c5ccc(-n6ccn(C)c6=O)c(Cl)c5)c4O)ccn3)C2)C1` (stereo not shown) [Example 712, 2-(4-(3′-chloro-5-fluoro-2-hydroxy-4′-(3-methyl-2-oxo-2,3-dihydro-1H-imidazol-1-yl)-[1,1′-biphenyl]-3-yl)pyridin-2-yl)-7-methyl-2,7-diazaspiro[4.4]nonan-3-one], in assay [1], the 50% inhibitory concentration (IC50) fell in the range of 0.01 to 1 nM. This compound had a GI50 in assay [2] of 30 to 300 nM.
For `CC(C)N1CCN(c2cc(F)cc(-c3cc(F)cc(-c4ccc(-n5ccn(C)c5=O)c(Cl)c4)c3O)c2)CC1` [Example 713, 1-(3-chloro-3″,5′-difluoro-2′-hydroxy-5″-(4-isopropylpiperazin-1-yl)-[1,1′:3′,1″-terphenyl]-4-yl)-3-methyl-1H-imidazol-2(3H)-one], in that order: 0.01 to 1 nM and 0.3 to 30 nM.
On to `Cn1ccn(-c2ccc(-c3cc(F)cc(-c4ccnc(N5CCCC(C)(O)C5)c4)c3O)cc2Cl)c1=O` (stereo not shown) [Example 714, 1-(3-chloro-5′-fluoro-2′-hydroxy-3′-(2-(3-hydroxy-3-methylpiperidin-1-yl)pyridin-4-yl)-[1,1′-biphenyl]-4-yl)-3-methyl-1H-imidazol-2(3H)-one], for which the IC50 in assay [1] lay within 0.01 to 1 nM. This compound had a GI50 in assay [2] of 30 to 300 nM.
For `COCCCOc1cc(-c2cc(F)cc(-c3ccc(-n4ccn(C)c4=O)c(Cl)c3)c2O)cc(N2CCN[C@H](C)C2)n1` [Example 715, (R)-1-(3-chloro-5′-fluoro-2′-hydroxy-3′-(2-(3-methoxypropoxy)-6-(3-methylpiperazin-1-yl)pyridin-4-yl)-[1,1′-biphenyl]-4-yl)-3-methyl-1H-imidazol-2(3H)-one], in that order: 0.01 to 1 nM and 0.3 to 30 nM.
For `Cn1ccn(-c2ccc(-c3cc(F)cc(-c4ccnc(N5CC[C@@](C)(N)C5)c4)c3O)cc2Cl)c1=O` [Example 716, (R)-1-(3′-(2-(3-amino-3-methylpyrrolidin-1-yl)pyridin-4-yl)-3-chloro-5′-fluoro-2′-hydroxy-[1,1′-biphenyl]-4-yl)-3-methyl-1,3-dihydro-], the IC50 in assay [1] was in the range of 0.01 to 1 nM. This compound also came in with a GI50 in assay [2] of 0.3 to 30 nM.
For `CC(C)N1CCN(c2cc(-c3cc(F)cc(-c4ccc(-n5ccn(C)c5=O)c(Cl)c4)c3O)cc(=O)n2C)CC1` [Example 717, 4-(3′-chloro-5-fluoro-2-hydroxy-4′-(3-methyl-2-oxo-2,3-dihydro-1H-imidazol-1-yl)-[1,1′-biphenyl]-3-yl)-6-(4-isopropylpiperazin-1-yl)-1-methylpyridin-2(1H)-one], in that order: 0.01 to 1 nM and 0.3 to 30 nM.
In the case of `Cn1ccn(-c2ccc(-c3cc(F)cc(-c4ccnc(N5CCC(O)(C6CC6)C5)c4)c3O)cc2Cl)c1=O` (stereo not shown) [Example 718, 1-(3-chloro-3′-(2-(3-cyclopropyl-3-hydroxypyrrolidin-1-yl)pyridin-4-yl)-5′-fluoro-2′-hydroxy-[1,1′-biphenyl]-4-yl)-3-methyl-1H-imidazol-2(3H)-one], the IC50 in assay [1] was in the range of 0.01 to 1 nM. The same compound registered a GI50 in assay [2] of 0.3 to 30 nM.
For `Cn1ccn(-c2ccc(-c3cc(F)cc(-c4ccc(F)c(N5CCN(C(C)(C)C)CC5)c4)c3O)cc2Cl)c1=O` [Example 719, 1-(3″-(4-(tert-butyl)piperazin-1-yl)-3-chloro-4″,5′-difluoro-2′-hydroxy-[1,1′:3′,1″-terphenyl]-4-yl)-3-methyl-1H-imidazol-2(3H)-one], in that order: 0.01 to 1 nM and 0.3 to 30 nM.
On to `CC(C)N1CCN(c2cc(-c3cc(F)cc(-c4ccc(-n5ccn(C)c5=O)c(Cl)c4)c3O)ccc2F)CC1` [Example 720, 1-(3-chloro-4″,5′-difluoro-2′-hydroxy-3″-(4-isopropylpiperazin-1-yl)-[1,1′:3′,1″-terphenyl]-4-yl)-3-methyl-1H-imidazol-2(3H)-one], for which the half-inhibitory concentration (IC50) in assay [1] is 0.01 to 1 nM. In assay [2], this compound returned a GI50 of 0.3 to 30 nM.
The corresponding values for `Cn1ccn(-c2ccc(-c3cc(F)cc(-c4ccnc(N5CC6CC6(N)C5)c4)c3O)cc2Cl)c1=O` (stereo not shown) [Example 721, 1-(3′-(2-(1-amino-3-azabicyclo[3.1.0]hexan-3-yl)pyridin-4-yl)-3-chloro-5′-fluoro-2′-hydroxy-[1,1′-biphenyl]-4-yl)-3-methyl-1H-imidazol-2(3H)-one] are 0.01 to 1 nM and 30 to 300 nM.
For `Cc1ncc(-c2cc(F)cc(-c3ccc(-n4ccn(C)c4=O)c(Cl)c3)c2O)cc1N1CCN(C(C)C)CC1` [Example 722, 1-(3-chloro-5′-fluoro-2′-hydroxy-3′-(5-(4-isopropylpiperazin-1-yl)-6-methylpyridin-3-yl)-[1,1′-biphenyl]-4-yl)-3-methyl-1H-imidazol-2(3H)-one], in that order: 0.01 to 1 nM and 0.3 to 30 nM.
The corresponding values for `Cn1cc(-c2cc(F)cc(-c3ccc(-n4ccn(C)c4=O)c(Cl)c3)c2O)cc(N2CCC(C)(N)C2)c1=O` (stereo not shown) [Example 723, 3-(3-amino-3-methylpyrrolidin-1-yl)-5-(3′-chloro-5-fluoro-2-hydroxy-4′-(3-methyl-2-oxo-2,3-dihydro-1H-imidazol-1-yl)-[1,1′-biphenyl]-3-yl)-1-methylpyridin-2(1H)-one] are 1 to 10 nM and 0.3 to 30 nM.
